Patent publication US20240374558A1, “PREPARATION OF PHENE[…] […] STEREOISOMERS THEREOF AND PRECURSORS THEREOF” (priority 2022, published 2024)
Counter-ions that a name gives are not always drawn.

Key:
Type in all cases: cell-based
KCNQ1/mink = target: T1, KCNQ1/mink (Homo sapiens, UniProt P51787); test: hKCNQ1/hminK Potassium Channel Assay, Qube APC; conditions: Antagonist mode; CHO-KCNQ1/minK; test compound
T1 construct: host or cells: CHO
Experimental: (§1) Electrophysiological assays were conducted to profile three compounds ((R)-methylone, (S)-methylone, or racemic methylone) for activities on the ion channel targets specified below using the Qube electrophysiological platform. Where presented, IC50 values were determined by a non-linear, least squares regression analysis. Reference standards were run as an integral part of each assay to ensure the validity of the results obtained.
(§2) Ion Channels tested were Eurofins Panel Part Number: CPROFullQB2DR Voltage-Gated Sodium: HEK-Nav1.5 (Peak), HEK-Nav1.5 (Late, Antagonist) Voltage-Gated Potassium: HEK-Kv4.3/KChIP2, CHO-hERG, CHO-KCNQ1/minK Voltage-Gated Calcium: HEK-Cav1.2 Inward-Rectifying Voltage-Gated Potassium: HEK-Kir2.1.
(§3) hKCNQ1/hminK Potassium Channel Assay—Qube APC After whole cell configuration is achieved, the cells are held at −80 mV. KCNQ1/minK currents are evoked by a 1000 ms pulse from −80 mV to 60 mV followed by a ramp from 60 mV to −80 mV over 115 ms with the outward peak currents measured upon depolarization of the cell membrane. This paradigm is delivered once every 15s to monitor the current amplitude. [0223] hKir2.1 Potassium Channel Assay—Qube APC After whole cell configuration is achieved, the cells are held at −30 mV. Kir2.1 currents are evoked by a single 500 ms pulse to -120 mV before returning to the holding potential of −30 mV. This paradigm is delivered once every 20s to monitor the current amplitude.

Kir2.1 = target: T2, Kir2.1 (Homo sapiens, UniProt P63252); conditions: Antagonist mode; HEK-Kir2.1; test compound
T2 construct: host or cells: HEK
T2 sequence (P63252 1-427): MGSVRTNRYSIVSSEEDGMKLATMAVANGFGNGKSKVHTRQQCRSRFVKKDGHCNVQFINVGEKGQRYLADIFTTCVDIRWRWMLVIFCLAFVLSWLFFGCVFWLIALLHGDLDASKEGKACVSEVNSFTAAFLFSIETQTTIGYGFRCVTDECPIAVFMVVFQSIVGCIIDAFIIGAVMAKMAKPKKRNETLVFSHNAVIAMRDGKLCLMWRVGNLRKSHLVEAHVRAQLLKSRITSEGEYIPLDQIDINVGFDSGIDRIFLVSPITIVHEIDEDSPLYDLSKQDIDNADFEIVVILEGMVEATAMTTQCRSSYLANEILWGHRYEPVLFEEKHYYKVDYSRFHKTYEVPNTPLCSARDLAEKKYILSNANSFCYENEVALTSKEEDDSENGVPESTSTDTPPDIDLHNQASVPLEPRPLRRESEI
Experimental: as §1, §2, §3

Cav1.2 = target: T3, Cav1.2 (Homo sapiens, UniProt Q13936); test: hCav1.2 (L-type) Calcium Channel Assay, Qube APC; conditions: Antagonist mode; HEK-Cav1.2; test compound
T3 construct: host or cells: HEK293
T3 sequence (Q13936 whole entry): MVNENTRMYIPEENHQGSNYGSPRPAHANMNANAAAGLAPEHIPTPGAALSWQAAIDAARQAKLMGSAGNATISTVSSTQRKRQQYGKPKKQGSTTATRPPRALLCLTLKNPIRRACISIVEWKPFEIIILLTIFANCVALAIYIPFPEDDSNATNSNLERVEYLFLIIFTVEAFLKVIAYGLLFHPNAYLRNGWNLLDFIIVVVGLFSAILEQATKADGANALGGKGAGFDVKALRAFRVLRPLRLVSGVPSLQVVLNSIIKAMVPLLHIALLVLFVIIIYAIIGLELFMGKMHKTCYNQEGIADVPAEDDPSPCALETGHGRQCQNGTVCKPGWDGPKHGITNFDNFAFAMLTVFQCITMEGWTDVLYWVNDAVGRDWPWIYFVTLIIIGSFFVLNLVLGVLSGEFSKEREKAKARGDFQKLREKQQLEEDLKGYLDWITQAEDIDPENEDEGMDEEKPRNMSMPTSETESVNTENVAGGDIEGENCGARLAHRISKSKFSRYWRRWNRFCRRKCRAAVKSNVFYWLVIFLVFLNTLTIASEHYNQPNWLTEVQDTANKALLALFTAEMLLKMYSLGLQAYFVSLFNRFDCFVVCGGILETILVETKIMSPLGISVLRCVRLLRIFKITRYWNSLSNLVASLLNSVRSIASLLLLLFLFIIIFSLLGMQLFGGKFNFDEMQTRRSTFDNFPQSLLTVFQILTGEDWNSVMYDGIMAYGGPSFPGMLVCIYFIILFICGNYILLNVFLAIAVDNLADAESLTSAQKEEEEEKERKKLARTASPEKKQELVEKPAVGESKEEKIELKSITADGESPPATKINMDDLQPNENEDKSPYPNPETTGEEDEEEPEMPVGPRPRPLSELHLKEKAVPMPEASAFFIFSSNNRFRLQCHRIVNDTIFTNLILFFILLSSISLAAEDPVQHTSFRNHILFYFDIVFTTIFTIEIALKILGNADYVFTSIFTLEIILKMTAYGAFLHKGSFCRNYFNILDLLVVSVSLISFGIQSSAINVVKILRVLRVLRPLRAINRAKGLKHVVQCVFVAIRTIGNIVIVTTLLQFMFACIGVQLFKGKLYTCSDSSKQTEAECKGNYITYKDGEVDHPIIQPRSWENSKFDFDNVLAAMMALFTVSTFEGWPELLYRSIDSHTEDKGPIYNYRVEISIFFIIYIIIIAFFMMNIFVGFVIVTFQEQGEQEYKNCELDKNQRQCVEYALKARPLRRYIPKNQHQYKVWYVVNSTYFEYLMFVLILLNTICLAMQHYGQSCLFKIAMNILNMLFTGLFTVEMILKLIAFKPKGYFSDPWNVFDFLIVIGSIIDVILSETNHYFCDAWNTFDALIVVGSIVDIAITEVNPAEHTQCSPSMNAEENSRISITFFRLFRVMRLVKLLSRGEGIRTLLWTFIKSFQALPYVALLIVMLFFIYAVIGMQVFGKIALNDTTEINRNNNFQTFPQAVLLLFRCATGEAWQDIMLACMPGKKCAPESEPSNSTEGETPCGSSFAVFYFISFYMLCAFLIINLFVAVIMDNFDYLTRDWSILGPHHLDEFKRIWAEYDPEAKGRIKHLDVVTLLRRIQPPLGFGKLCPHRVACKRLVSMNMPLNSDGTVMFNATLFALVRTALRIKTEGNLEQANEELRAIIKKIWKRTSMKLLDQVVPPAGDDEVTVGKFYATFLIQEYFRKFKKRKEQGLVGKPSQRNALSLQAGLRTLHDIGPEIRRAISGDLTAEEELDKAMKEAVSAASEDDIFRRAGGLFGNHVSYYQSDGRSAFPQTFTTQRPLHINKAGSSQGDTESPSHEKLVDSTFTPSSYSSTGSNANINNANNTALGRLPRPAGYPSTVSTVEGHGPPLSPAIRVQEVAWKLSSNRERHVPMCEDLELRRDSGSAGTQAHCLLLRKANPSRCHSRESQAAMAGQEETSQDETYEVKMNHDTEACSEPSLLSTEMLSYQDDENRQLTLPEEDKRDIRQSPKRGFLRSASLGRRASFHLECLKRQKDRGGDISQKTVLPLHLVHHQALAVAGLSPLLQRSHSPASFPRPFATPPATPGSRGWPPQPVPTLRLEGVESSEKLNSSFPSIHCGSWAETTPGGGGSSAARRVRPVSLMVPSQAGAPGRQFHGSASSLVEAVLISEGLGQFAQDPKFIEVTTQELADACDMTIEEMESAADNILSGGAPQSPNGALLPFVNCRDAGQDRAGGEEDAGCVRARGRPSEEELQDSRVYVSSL
T3 sequence (Q08289 1-605 isoform Q08289-2 partner): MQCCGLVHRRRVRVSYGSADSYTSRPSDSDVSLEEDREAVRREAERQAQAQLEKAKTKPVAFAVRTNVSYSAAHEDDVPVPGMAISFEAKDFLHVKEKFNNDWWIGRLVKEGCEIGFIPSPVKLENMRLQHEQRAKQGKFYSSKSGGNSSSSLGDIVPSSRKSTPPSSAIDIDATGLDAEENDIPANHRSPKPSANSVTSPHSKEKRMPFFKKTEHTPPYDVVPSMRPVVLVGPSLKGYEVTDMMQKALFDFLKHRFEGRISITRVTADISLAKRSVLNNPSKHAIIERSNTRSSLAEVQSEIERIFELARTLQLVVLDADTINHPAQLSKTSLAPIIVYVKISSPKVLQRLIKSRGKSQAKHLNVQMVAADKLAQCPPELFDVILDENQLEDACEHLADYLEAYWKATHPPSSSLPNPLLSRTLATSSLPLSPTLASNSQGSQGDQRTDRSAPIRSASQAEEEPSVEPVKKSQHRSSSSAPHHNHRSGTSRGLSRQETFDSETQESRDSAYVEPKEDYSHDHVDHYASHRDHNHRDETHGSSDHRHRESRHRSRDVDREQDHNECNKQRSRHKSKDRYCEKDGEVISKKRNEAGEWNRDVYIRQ
T3 sequence (P54289 25-956 partner limits assumed): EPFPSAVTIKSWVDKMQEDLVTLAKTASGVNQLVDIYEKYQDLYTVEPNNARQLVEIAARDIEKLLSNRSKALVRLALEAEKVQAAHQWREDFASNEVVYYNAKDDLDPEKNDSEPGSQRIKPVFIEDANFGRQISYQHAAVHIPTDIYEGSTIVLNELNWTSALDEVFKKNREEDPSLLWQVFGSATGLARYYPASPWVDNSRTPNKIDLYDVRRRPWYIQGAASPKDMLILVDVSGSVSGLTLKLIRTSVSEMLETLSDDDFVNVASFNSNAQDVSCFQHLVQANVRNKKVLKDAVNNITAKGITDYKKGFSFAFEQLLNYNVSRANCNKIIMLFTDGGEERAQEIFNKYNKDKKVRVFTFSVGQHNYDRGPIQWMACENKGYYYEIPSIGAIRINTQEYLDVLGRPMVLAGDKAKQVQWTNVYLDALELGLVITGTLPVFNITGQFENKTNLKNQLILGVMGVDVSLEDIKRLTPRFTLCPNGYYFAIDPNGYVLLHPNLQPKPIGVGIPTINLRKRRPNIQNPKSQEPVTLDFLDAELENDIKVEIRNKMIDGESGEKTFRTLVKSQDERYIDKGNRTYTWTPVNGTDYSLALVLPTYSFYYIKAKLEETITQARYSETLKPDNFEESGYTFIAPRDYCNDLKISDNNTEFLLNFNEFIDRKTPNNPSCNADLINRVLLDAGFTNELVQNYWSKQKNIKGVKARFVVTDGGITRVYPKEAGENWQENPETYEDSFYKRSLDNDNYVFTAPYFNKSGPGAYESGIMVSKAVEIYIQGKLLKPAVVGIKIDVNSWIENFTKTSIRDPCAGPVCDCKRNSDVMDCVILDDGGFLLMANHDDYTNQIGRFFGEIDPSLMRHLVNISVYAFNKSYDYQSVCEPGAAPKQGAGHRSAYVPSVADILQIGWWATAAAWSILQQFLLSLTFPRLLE
T3 sequence (P54289 957-1103 partner limits assumed): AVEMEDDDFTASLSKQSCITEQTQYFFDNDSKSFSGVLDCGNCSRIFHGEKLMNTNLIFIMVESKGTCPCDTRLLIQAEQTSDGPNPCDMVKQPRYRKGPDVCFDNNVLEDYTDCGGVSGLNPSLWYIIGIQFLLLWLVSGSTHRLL
Experimental: (§4) Where presented, IC50 values were determined by a non-linear, least squares regression analysis.
(§5) Recombinant HEK-293 cells stably transfected with human NavL.5 cDNA, recombinant HEK293 cell line expressing the human Cavl.2 (L-type voltage gated calcium channel, hCavl.2 alC/02a/a281, and recombinant CHO-K1 cells stably transfected with human hERG cDNA were used separately in each of these assays.
as §2
(§6) Methods employed in this study have been developed and validated with reliability and reproducibility by Eurofins. Assays were performed under conditions below. […] Peak current is measured during the step to −15 mV. […] Onset and steady state block of hKv4.3 current is measured using a pulse pattern from −80 mV to 40 mV amplitude for a 110 ms duration, and finally a 100 ms ramp (1.2 V/s) to −80 mV. This paradigm is delivered once every 5s to monitor the current amplitude. […] Cavl.2 currents are evoked by a 50 ms pulse to −100 mV followed by a 200 ms pulse to +20 mV before returning to the holding potential of −90 mV. This paradigm is delivered three times every 60s to monitor the current amplitude. [0220] hNav1.5 Late Current Sodium Channel Assay—Qube APC Onset and steady state block of Late Nay1.5 current is measured using a pulse pattern, repeated every 5 sec, consisting of a hyperpolarizing pulse to −120 mV for a 200 ms duration, depolarization to −15 mV amplitude for a 40 ms duration, followed by step to 40 mV for 200 ms and finally a 100 ms ramp (1.2 V/s) to a holding potential of −80 mV. Late current is measured as charge current elicited during the ramp with 50 nM ATXII.

Nav1.5 = target: T4, Nav1.5 (Homo sapiens, UniProt Q14524); test: hNav1.5 Sodium Channel Assay (peak), Qube APC; conditions: Antagonist mode; HEK-Nav1.5 (Peak); test compound
T4 construct: host or cells: HEK-293
Experimental: as §4, §5, §2, §6

Nav1.5 Late Current = target: T5, Nav1.5 Late Current (Homo sapiens, UniProt Q14524); test: hNav1.5 Late Current Sodium Channel Assay, Qube APC; conditions: Antagonist mode; HEK-Nav1.5 (Late), 50 nM ATXII; test compound
T5 construct: host or cells: HEK-293
Experimental: as §1, §2
Methods employed in this study have been developed and validated with reliability and reproducibility by Eurofins. Assays were performed under conditions below. [0217] hNavL.5 Sodium Channel Assay—Qube APC Onset and steady state block of peak Nay1.5 current is measured using a pulse pattern, repeated every 5 sec, consisting of a hyperpolarizing pulse to −120 mV for a 200 ms duration, depolarization to −15 mV amplitude for a 40 ms duration, followed by step to 40 mV for 200 ms and finally a 100 ms ramp (1.2 V/s) to a holding potential of −80 mV. Peak current is measured during the step to −15 mV. […] Onset and steady state block of hKv4.3 current is measured using a pulse pattern from −80 mV to 40 mV amplitude for a 110 ms duration, and finally a 100 ms ramp (1.2 V/s) to −80 mV. […] [0220] hNav1.5 Late Current Sodium Channel Assay—Qube APC Onset and steady state block of Late Nay1.5 current is measured using a pulse pattern, repeated every 5 sec, consisting of a hyperpolarizing pulse to −120 mV for a 200 ms duration, depolarization to −15 mV amplitude for a 40 ms duration, followed by step to 40 mV for 200 ms and finally a 100 ms ramp (1.2 V/s) to a holding potential of −80 mV. Late current is measured as charge current elicited during the ramp with 50 nM ATXII.

T1 sequence (P51787 whole entry): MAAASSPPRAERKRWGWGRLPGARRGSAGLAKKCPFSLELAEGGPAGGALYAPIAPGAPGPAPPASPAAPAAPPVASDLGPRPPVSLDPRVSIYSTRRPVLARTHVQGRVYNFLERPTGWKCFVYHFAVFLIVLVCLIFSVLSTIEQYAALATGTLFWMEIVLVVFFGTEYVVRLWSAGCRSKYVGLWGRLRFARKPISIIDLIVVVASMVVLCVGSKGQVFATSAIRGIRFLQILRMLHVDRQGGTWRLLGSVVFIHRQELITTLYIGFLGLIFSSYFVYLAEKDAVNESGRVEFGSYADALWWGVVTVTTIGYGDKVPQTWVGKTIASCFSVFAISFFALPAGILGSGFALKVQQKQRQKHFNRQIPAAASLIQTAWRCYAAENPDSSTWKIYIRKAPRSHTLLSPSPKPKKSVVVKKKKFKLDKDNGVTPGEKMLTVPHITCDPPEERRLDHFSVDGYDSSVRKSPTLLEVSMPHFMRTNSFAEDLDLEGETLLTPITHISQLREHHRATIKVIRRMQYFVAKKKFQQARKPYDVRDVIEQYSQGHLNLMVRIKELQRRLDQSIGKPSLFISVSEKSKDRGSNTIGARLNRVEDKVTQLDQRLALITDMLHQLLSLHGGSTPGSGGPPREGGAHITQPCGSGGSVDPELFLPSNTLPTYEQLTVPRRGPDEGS

SMILES	Estimated IC50 (KCNQ1/mink)	Estimated IC50 (Kir2.1)	Estimated IC50 (Cav1.2)	Estimated IC50 (Nav1.5)	Estimated IC50 (Nav1.5 Late Current)
CN[C@H](C)C(=O)c1ccc2c(c1)OCO2 [(R)-methylone]	N/C (N/C indicates observed mean inhibition was <25%)	N/C (N/C indicates observed mean inhibition was <25%)	N/C (N/C indicates observed mean inhibition was <25%)	N/C (N/C indicates observed mean inhibition was <25%)	N/C (N/C indicates observed mean inhibition was <25%)
CN[C@@H](C)C(=O)c1ccc2c(c1)OCO2 [(S)-methylone]	N/C (N/C indicates observed mean inhibition was <25%)	N/C (N/C indicates observed mean inhibition was <25%)	N/C (N/C indicates observed mean inhibition was <25%)	N/C (N/C indicates observed mean inhibition was <25%)	N/C (N/C indicates observed mean inhibition was <25%)
CNC(C)C(=O)c1ccc2c(c1)OCO2 (stereo not drawn) [Methylone HCl, methylone HCl]	N/C (N/C indicates observed mean inhibition was <25%)	N/C (N/C indicates observed mean inhibition was <25%)	N/C (N/C indicates observed mean inhibition was <25%)	N/C (N/C indicates observed mean inhibition was <25%)	N/C (N/C indicates observed mean inhibition was <25%)
